This experiment has as its target human ACC2 (Homo sapiens (Human), UniProt O00763). As to the kind of experiment: ACC2 assay: spectrophotometric 384 well assay (coupled lactate dehydrogenase/pyruvate kinase). It is filed as biochemical. Conditions: hACC2 construct lacking the 128 N-terminal amino acids, 25° C., 340 nm. The gist of the method: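 N-terminally truncated human ACC2 from insect cells; ADP formation coupled via pyruvate kinase/lactate dehydrogenase, NADH loss read at 340 nm over 15 min at 25 °C, pH 7.5. Started with NADH, acetyl-CoA and 500 µM ATP; 1% DMSO. IC50 by nonlinear fit of background-subtracted slopes.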

pIC50: −log10 of the molar value.

As usually defined, the pIC50 is the negative decadic logarithm of the IC50, by convention in mol/L. Lower therefore signals a high IC50.

Sequence of human ACC2 (O00763 129-2458): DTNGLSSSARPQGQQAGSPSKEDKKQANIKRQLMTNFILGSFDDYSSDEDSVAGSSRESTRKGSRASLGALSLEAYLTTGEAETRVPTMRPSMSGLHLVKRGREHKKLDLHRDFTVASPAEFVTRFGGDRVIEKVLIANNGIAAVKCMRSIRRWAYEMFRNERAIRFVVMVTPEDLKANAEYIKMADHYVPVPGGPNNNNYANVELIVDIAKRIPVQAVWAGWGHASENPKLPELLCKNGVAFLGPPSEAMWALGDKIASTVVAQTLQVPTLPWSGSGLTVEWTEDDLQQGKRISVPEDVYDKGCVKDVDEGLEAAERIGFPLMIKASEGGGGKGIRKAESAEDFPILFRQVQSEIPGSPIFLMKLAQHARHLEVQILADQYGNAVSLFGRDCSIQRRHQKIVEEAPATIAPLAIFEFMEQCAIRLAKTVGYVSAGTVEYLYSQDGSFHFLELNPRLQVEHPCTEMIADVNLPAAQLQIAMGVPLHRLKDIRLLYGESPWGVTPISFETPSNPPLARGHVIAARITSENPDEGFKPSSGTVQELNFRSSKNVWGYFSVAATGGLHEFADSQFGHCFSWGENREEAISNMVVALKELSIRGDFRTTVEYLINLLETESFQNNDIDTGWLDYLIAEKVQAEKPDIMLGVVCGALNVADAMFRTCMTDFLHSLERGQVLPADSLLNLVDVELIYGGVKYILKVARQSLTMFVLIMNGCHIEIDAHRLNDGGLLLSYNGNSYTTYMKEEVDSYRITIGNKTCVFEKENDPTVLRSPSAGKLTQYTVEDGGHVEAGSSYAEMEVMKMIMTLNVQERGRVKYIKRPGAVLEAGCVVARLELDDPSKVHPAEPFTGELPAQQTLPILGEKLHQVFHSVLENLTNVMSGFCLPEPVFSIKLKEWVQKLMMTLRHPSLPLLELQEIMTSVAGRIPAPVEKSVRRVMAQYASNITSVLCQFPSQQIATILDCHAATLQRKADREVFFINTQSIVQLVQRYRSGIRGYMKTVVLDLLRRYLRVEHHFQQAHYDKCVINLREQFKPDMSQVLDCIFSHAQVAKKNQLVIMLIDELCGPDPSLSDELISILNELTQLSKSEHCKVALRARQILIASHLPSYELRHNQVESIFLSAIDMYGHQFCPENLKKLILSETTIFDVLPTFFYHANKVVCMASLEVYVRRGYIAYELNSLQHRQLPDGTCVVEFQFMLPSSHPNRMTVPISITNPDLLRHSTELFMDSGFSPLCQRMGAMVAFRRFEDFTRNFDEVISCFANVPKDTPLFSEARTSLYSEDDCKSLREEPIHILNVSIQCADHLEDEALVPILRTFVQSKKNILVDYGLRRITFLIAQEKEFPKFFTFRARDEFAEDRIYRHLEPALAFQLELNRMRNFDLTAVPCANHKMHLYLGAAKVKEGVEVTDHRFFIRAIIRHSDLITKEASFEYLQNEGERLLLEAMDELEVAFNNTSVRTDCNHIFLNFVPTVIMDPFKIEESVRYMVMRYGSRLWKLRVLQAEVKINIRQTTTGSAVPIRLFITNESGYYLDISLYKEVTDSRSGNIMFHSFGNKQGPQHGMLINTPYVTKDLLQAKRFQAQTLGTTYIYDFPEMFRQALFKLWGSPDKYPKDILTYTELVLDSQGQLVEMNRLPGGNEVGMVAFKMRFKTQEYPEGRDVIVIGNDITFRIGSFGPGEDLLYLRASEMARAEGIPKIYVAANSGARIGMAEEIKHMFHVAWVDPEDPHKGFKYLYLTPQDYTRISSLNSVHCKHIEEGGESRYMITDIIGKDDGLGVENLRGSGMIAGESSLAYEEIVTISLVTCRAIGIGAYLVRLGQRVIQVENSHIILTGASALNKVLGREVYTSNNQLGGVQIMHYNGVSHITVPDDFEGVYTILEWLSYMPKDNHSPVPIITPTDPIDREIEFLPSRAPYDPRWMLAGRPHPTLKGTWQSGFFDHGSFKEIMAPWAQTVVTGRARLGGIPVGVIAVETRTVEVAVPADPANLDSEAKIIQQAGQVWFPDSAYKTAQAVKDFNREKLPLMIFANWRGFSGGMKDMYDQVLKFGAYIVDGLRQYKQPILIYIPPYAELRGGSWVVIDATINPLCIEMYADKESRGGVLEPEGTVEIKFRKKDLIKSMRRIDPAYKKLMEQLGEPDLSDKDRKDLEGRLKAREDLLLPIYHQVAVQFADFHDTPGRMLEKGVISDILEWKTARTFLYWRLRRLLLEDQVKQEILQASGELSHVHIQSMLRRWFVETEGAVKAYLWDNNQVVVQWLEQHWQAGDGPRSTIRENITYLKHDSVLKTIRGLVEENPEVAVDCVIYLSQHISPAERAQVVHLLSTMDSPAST

Molecule `C[C@H](NC(=O)[C@H]1C[C@H](F)C1)c1ccc(CN2Cc3ccc(OCC4CC4)cc3C(F)C2)cc1` (some centres unmarked) [Example 3.023] showed a pIC50 of 7.35.
Regarding `CCC(=O)N[C@@H](C)c1ccc(CN2Cc3ccc(OCC4CC4)cc3C(F)C2)cc1` (some centres unmarked) [Example 3.024], the pIC50 was 7.66.
To `CCC(=O)Nc1nc(C)c(C(=O)N[C@@H](C)c2ccc(CN3Cc4ccc(OCC5CC5)cc4C(F)C3)cc2)s1` (some centres unmarked) [Example 3.025] belongs 7.59.
`C[C@H](NC(=O)CC#N)c1ccc(CN2Cc3ccc(OCC4CC4)cc3C(F)C2)cc1` (some centres unmarked) [Example 3.026] gave a pIC50 of 7.31.
In turn, `CCC(=O)N[C@@H](C)c1ccc(CN2Cc3ccc(OCC4CC4(F)F)cc3C(F)C2)cc1` (some centres unmarked) [Example 3.027] showed a pIC50 of 7.42.
Molecule `C[C@H](NC(=O)C1(C#N)CC1)c1ccc(CN2Cc3ccc(OCC4CC4(F)F)cc3C(F)C2)cc1` (some centres unmarked) [Example 3.028] gave a negative-log IC50 (pIC50) of 7.34.
Then `C[C@H](NC(=O)CC#N)c1ccc(CN2Cc3ccc(OCC4CC4(F)F)cc3C(F)C2)cc1` (some centres unmarked) [Example 3.029], with 7.35; and `C[C@H](NC(=O)[C@H]1C[C@H](F)C1)c1ccc(CN2Cc3ccc(OCC4CC4(F)F)cc3C(F)C2)cc1` (some centres unmarked) [Example 3.031], with 7.11.
`CC(=O)Nc1nc(C)c(C(=O)N[C@@H](C)c2ccc(CN3Cc4ccc(OCC5CC5(F)F)cc4C(F)C3)cc2)s1` (some centres unmarked) [Example 3.032] had a pIC50 of 7.24.
`C[C@H](NC(=O)c1ncc[nH]1)c1ccc(CN2Cc3ccc(OCC4CC4)cc3C(F)C2)cc1` (some centres unmarked) [Example 3.033]: the pIC50 is 6.45.
Then `C[C@H](NC(=O)CC(N)=O)c1ccc(CN2Cc3ccc(OCC4CC4)cc3C(F)C2)cc1` (some centres unmarked) [Example 3.034], with 6.94; and `C[C@H](NC(=O)C1CCC(=O)N1)c1ccc(CN2Cc3ccc(OCC4CC4)cc3C(F)C2)cc1` (some centres unmarked) [Example 3.035], with 6.84.
`CC(=O)Nc1nc(C)c(C(=O)N[C@@H](C)c2ccc(CN3Cc4ccc(OCC5CC5)cc4C(F)C3)cc2)o1` (some centres unmarked) [Example 3.036]: the pIC50 was 6.29.
Turning to `C[C@H](NC(=O)Cc1cnccn1)c1ccc(CN2Cc3ccc(OCC4CC4)cc3C(F)C2)cc1` (some centres unmarked) [Example 3.037], the pIC50 was 7.22.
To `C[C@H](NC(=O)C1CC1)c1ccc(CN2Cc3ccc(OCC4CC4)cc3C(O)C2)cc1` (some centres unmarked) [Example 3.038] belongs 6.70; to `CCC(=O)N[C@@H](C)c1ccc(CN2Cc3ccc(OCC4CC4)cc3C(O)C2)cc1` (some centres unmarked) [Example 3.039], 6.87.
Turning to `CCC(=O)Nc1nc(C)c(C(=O)N[C@@H](C)c2ccc(CN3Cc4ccc(OCC5CC5)cc4C(O)C3)cc2)s1` (some centres unmarked) [Example 3.040], the pIC50 was 6.72.
As to `C[C@H](NC(=O)C1CCC1)c1ccc(CN2Cc3ccc(OCC4CC4)cc3C(O)C2)cc1` (some centres unmarked) [Example 3.041], the pIC50 was 6.31.
Then `C[C@H](NC(=O)C1CCC1)c1ccc(CN2Cc3ccc(OCC4CC4)cc3C(F)C2)cc1` (some centres unmarked) [Example 3.042], with 7.14.
To `C[C@H](NC(=O)C1(C#N)CC1)c1ccc(CN2Cc3ccc(OCC4CC4)cc3C(O)C2)cc1` (some centres unmarked) [Example 3.043] belongs 6.45; to `C[C@H](NC(=O)C1(C#N)CC1)c1ccc(CN2Cc3ccc(OCC4CC4)cc3C(F)C2)cc1` (some centres unmarked) [Example 3.044], 7.21.
The molecule `CC(=O)Nc1nc(C)c(C(=O)N[C@@H](C)c2ccc(CN3Cc4ccc(OCC5CC5)cc4C(O)C3)cc2)s1` (some centres unmarked) [Example 3.045] gave a pIC50 of 6.64.
In turn, `CC(=O)Nc1nc(C)c(C(=O)N[C@@H](C)c2ccc(CN3Cc4ccc(OCC5CC5)cc4C(F)C3)cc2)s1` (some centres unmarked) [Example 3.046] gave a pIC50 of 7.25.
Molecule `C[C@H](NC(=O)c1cncs1)c1ccc(CN2Cc3ccc(OCC4CC4)cc3C(O)C2)cc1` (some centres unmarked) [Example 3.047] showed a negative-log IC50 (pIC50) of 6.51.
For the molecule `C[C@H](NC(=O)c1cncs1)c1ccc(CN2Cc3ccc(OCC4CC4)cc3C(F)C2)cc1` (some centres unmarked) [Example 3.048], the negative-log IC50 (pIC50) is 7.23.
Then `C[C@H](NC(=O)[C@H]1C[C@H](F)C1)c1ccc(CN2Cc3ccc(OCC4CC4)cc3C(O)C2)cc1` (some centres unmarked) [Example 3.049], with 6.35; and `C[C@H](NC(=O)[C@@H]1CC[C@H](NC(=O)OC(C)(C)C)C1)c1ccc(CN2Cc3ccc(OCC4CC4)cc3C(F)C2)cc1` (some centres unmarked) [Example 3.050], with 6.51.
To `C[C@H](NC(=O)CC#N)c1ccc(CN2Cc3ccc(OCC4CC4)cc3C(O)C2)cc1` (some centres unmarked) [Example 3.051] belongs 6.22; to `C[C@H](NC(=O)[C@@H]1CCC(=O)N1)c1ccc(CN2Cc3ccc(OCC4CC4)cc3C(F)C2)cc1` (some centres unmarked) [Example 3.052], 6.82.
Take `C[C@H](NC(=O)[C@H]1CCC(=O)N1)c1ccc(CN2Cc3ccc(OCC4CC4)cc3C(F)C2)cc1` (some centres unmarked) [Example 3.053]: the pIC50 is 6.67.
Take `C[C@H](NC(=O)C1CCC(=O)O1)c1ccc(CN2Cc3ccc(OCC4CC4)cc3C(F)C2)cc1` (some centres unmarked) [Example 3.054]: the negative logarithm of the IC50 (pIC50) was 6.61.
Then `C[C@H](NC(=O)C1(N)CC1)c1ccc(CN2Cc3ccc(OCC4CC4)cc3C(F)C2)cc1` (some centres unmarked) [Example 3.055], with 7.26.
To `C[C@H](NC(=O)C1CCC[C@@H]1N)c1ccc(CN2Cc3ccc(OCC4CC4)cc3C(F)C2)cc1` (some centres unmarked) [Example 3.056] belongs 6.05; to `C[C@H](NC(=O)C1COCCN1)c1ccc(CN2Cc3ccc(OCC4CC4)cc3C(F)C2)cc1` (some centres unmarked) [Example 3.057], 6.45.
Consider `C[C@H](NC(=O)CN)c1ccc(CN2Cc3ccc(OCC4CC4)cc3C(F)C2)cc1` (some centres unmarked) [Example 3.058], for which the negative-log IC50 (pIC50) is 6.58.
To `C[C@H](NC(=O)CO)c1ccc(CN2Cc3ccc(OCC4CC4)cc3C(F)C2)cc1` (some centres unmarked) [Example 3.059] belongs 7.33.
As to `C[C@H](O)C(=O)N[C@@H](C)c1ccc(CN2Cc3ccc(OCC4CC4)cc3C(F)C2)cc1` (some centres unmarked) [Example 3.060], the pIC50 was 6.88.
To `C[C@H](NC(=O)[C@@H](C)O)c1ccc(CN2Cc3ccc(OCC4CC4)cc3C(F)C2)cc1` (some centres unmarked) [Example 3.061] belongs 7.05.
Consider `C[C@H](NC(=O)C1(O)CC1)c1ccc(CN2Cc3ccc(OCC4CC4)cc3C(F)C2)cc1` (some centres unmarked) [Example 3.062], for which the pIC50 is 6.99.
Regarding `C[C@H](NC(=O)c1cn[nH]c1)c1ccc(CN2Cc3ccc(OCC4CC4)cc3C(O)C2)cc1` (some centres unmarked) [Example 3.063], the pIC50 was 6.58.
As for `C[C@H](NC(=O)c1cn[nH]c1)c1ccc(CN2Cc3ccc(OCC4CC4)cc3C(F)C2)cc1` (some centres unmarked) [Example 3.064], the pIC50 is 7.28.
Take `CCC(=O)N[C@@H](C)c1ccc(CN2CCc3cc(OCC4CC4(F)F)ccc3C2)cc1` (stereo partly drawn) [Example 4.001, N—((S)-1-{4-[6-(2,2-Difluoro-cyclopropylmethoxy)-3,4-dihydro-1H-isoquinolin-2-ylmethyl]-phenyl}-ethyl)-propionamide]: the pIC50 was 7.43.
Molecule `C[C@H](NC(=O)C(F)(F)F)c1ccc(CN2CCc3cc(OCC4CC4(F)F)ccc3C2)cc1` (some centres unmarked) [Example 4.002] had a pIC50 of 7.28.
To `C[C@H](NC(=O)C(F)F)c1ccc(CN2CCc3cc(OCC4CC4(F)F)ccc3C2)cc1` (some centres unmarked) [Example 4.003] belongs 7.60; to `CCNC(=O)N[C@@H](C)c1ccc(CN2CCc3cc(OCC4CC4(F)F)ccc3C2)cc1` (stereo partly drawn) [Example 5.001, 1-((S)-1-{4-[6-(2,2-Difluoro-cyclopropylmethoxy)-3,4-dihydro-1H-isoquinolin-2-ylmethyl]-phenyl}-ethyl)-3-ethyl-urea], 7.12; to `CNC(=O)N[C@@H](C)c1ccc(CN2CCc3cc(OCC4CC4(F)F)ccc3C2)cc1` (some centres unmarked) [Example 5.002], 7.23.
To `C[C@H](NC(=O)N(C)C)c1ccc(CN2CCc3cc(OCC4CC4(F)F)ccc3C2)cc1` (some centres unmarked) [Example 5.003] belongs 7.70.
Then `C[C@H](NC(=O)N(C)C)c1ccc(CN2Cc3ccc(OCC4CC4(F)F)cc3C(F)C2)cc1` (some centres unmarked) [Example 5.004], with 7.77; and `C[C@H](NC(=O)N(C)C)c1ccc(CN2Cc3ccc(OCC4CC4)cc3C(O)C2)cc1` (some centres unmarked) [Example 5.005], with 6.81; and `CCNC(=O)N[C@@H](C)c1ccc(CN2Cc3ccc(OCC4CC4)cc3C(O)C2)cc1` (some centres unmarked) [Example 5.006], with 6.06.
Molecule `CCNC(=O)N[C@@H](C)c1ccc(CN2Cc3ccc(OCC4CC4)cc3C(F)C2)cc1` (some centres unmarked) [Example 5.007] gave a pIC50 of 7.31.
Then `COC(=O)N[C@@H](C)c1ccc(CN2Cc3ccc(OCC4CC4)cc3C(O)C2)cc1` (some centres unmarked) [Example 5.008], with 6.43.
To `COC(=O)N[C@@H](C)c1ccc(CN2Cc3ccc(OCC4CC4)cc3C(F)C2)cc1` (some centres unmarked) [Example 5.009] belongs 6.94.
Take `C[C@H](NC(=O)N(C)C)c1ccc(CN2Cc3ccc(OCC4CC4(F)F)cc3C(O)C2)cc1` (some centres unmarked) [Example 6.002]: the pIC50 was 6.76.
Regarding `COc1cccc2c1CCN(Cc1ccc([C@H](C)NC(C)=O)cc1)C2` [Example 7.001, N-{(S)-1-[4-(5-Methoxy-3,4-dihydro-1H-isoquinolin-2-ylmethyl)-phenyl]-ethyl}-acetamide], the negative-log IC50 (pIC50) was 6.72.
`CC(=O)N[C@@H](C)c1ccc(CN2CCc3c(cccc3C(F)(F)F)C2)cc1` [Example 7.002] gave a pIC50 of 6.98.
The molecule `CC(=O)N[C@@H](C)c1ccc(CN2CCc3cc(OCC4CC4(F)F)ccc3C2)cc1` (some centres unmarked) [Example 7.003] showed a pIC50 of 7.59.
To `CC(=O)N[C@@H](C)c1ccc(CN2CCc3c(Br)cccc3C2)cc1` [Example 7.004] belongs 6.83; to `CC(=O)N[C@@H](C)c1ccc(CN2CCc3c(cccc3OC3CCC3)C2)cc1` [Example 7.005], 7.24; to `C[C@H](NC(=O)C1CC1)c1ccc(CN2CC(=O)c3cc(OCC4CC4(F)F)ccc3C2)cc1` (some centres unmarked) [Example 7.006], 6.26.
Molecule `CCC(=O)N[C@@H](C)c1ccc(CN2CC(=O)c3cc(OCC4CC4(F)F)ccc3C2)cc1` (some centres unmarked) [Example 7.007] gave a pIC50 of 6.73.
`CC(=O)N[C@@H](C)c1ccc(CN2CC(=O)c3cc(OCC4CC4(F)F)ccc3C2)cc1` (some centres unmarked) [Example 7.009] had a negative logarithm of the IC50 (pIC50) of 7.30.
